Results published in the NIST ThermoML archive (doi:10.1007/s10765-010-0768-y).

Test: xn = mol fraction of the nth substance listed
Conditions: 101 kPa, Liquid, Pycnometric method

C=CC(=O)OCCCC [butyl 2-propenoate] + Cc1cc(C)cc(C)c1
mass density [kg/m3]
Conditions | 288.15 K | 293.15 K | 298.15 K | 303.15 K | 308.15 K | 313.15 K | 318.15 K
x1 = 0.0724 | 871.63 | 867.64 | 863.65 | 859.66 | 855.67 | 851.68 | 847.69
x1 = 0.1414 | 873.88 | 869.82 | 865.76 | 861.7 | 857.64 | 853.58 | 849.52
x1 = 0.2135 | 876.24 | 872.11 | 867.99 | 863.87 | 859.75 | 855.63 | 851.51
x1 = 0.2846 | 878.6 | 874.42 | 870.24 | 866.06 | 861.88 | 857.71 | 853.54
x1 = 0.3512 | 880.84 | 876.6 | 872.37 | 868.14 | 863.91 | 859.68 | 855.45
x1 = 0.4223 | 883.26 | 878.97 | 874.68 | 870.39 | 866.1 | 861.81 | 857.53
x1 = 0.4998 | 885.94 | 881.58 | 877.22 | 872.87 | 868.52 | 864.17 | 859.82
x1 = 0.5724 | 888.47 | 884.05 | 879.63 | 875.21 | 870.8 | 866.39 | 861.98
x1 = 0.6578 | 891.46 | 886.97 | 882.48 | 877.99 | 873.5 | 869.02 | 864.54
x1 = 0.7131 | 893.41 | 888.87 | 884.33 | 879.8 | 875.27 | 870.74 | 866.21
x1 = 0.7823 | 895.86 | 891.26 | 886.66 | 882.07 | 877.48 | 872.89 | 868.3
x1 = 0.8563 | 898.49 | 893.83 | 889.17 | 884.52 | 879.87 | 875.22 | 870.57
x1 = 0.9295 | 901.09 | 896.38 | 891.67 | 886.96 | 882.26 | 877.56 | 872.86
x1 = 1 | 903.6 | 898.85 | 894.1 | 889.35 | 884.6 | 879.85 | 875.1

C=CC(=O)OCCCC [butyl 2-propenoate] + Cc1ccccc1
mass density [kg/m3]
Conditions | 288.15 K | 293.15 K | 298.15 K | 303.15 K | 308.15 K | 313.15 K | 318.15 K
x1 = 0.0704 | 875.4 | 870.63 | 865.86 | 861.09 | 856.32 | 851.55 | 846.79
x1 = 0.1402 | 878.72 | 873.92 | 869.12 | 864.32 | 859.52 | 854.72 | 849.92
x1 = 0.2054 | 881.63 | 876.8 | 871.97 | 867.14 | 862.31 | 857.48 | 852.65
x1 = 0.2799 | 884.72 | 879.86 | 875 | 870.15 | 865.31 | 860.47 | 855.63
x1 = 0.3604 | 887.81 | 882.94 | 878.07 | 873.2 | 868.34 | 863.48 | 858.62
x1 = 0.4338 | 890.4 | 885.52 | 880.64 | 875.77 | 870.9 | 866.03 | 861.16
x1 = 0.5098 | 892.88 | 888 | 883.12 | 878.24 | 873.36 | 868.48 | 863.6
x1 = 0.5836 | 895.08 | 890.19 | 885.31 | 880.43 | 875.55 | 870.67 | 865.79
x1 = 0.6584 | 897.1 | 892.22 | 887.34 | 882.46 | 877.58 | 872.7 | 867.82
x1 = 0.7198 | 898.6 | 893.73 | 888.86 | 883.99 | 879.12 | 874.25 | 869.38
x1 = 0.7912 | 900.18 | 895.32 | 890.46 | 885.6 | 880.75 | 875.9 | 871.05
x1 = 0.8578 | 901.48 | 896.64 | 891.8 | 886.96 | 882.12 | 877.28 | 872.44
x1 = 0.9324 | 902.74 | 897.93 | 893.12 | 888.31 | 883.5 | 878.69 | 873.88
x1 = 1 | 903.6 | 898.85 | 894.1 | 889.35 | 884.6 | 879.85 | 875.1
